Laboratory results taken from US20240308995A1, “O-GLYCOPROTEIN-2-ACETAMIDO-2-DEOXY-3-D-GLUCOPYRANOSIDASE INHIBITORS” (BIOGEN MA INC., priority 2018, published 2024).
Read-outs that look alike come from different tables or passages of the source.

Key:
[1] = Rat Liver Microsome Stability Assay; type: in vitro ADME; conditions: rat liver microsomes, 1 uM compound
[2] = biological target: OGA (S400 O-GLCNAC), HEK-293T cells transfected with Tau-V5 (Homo sapiens (Human), UniProt O60502); test: Cellular OGA-Tau MSD Assay; type: cell-based
Sequence of OGA (S400 O-GLCNAC), HEK-293T cells transfected with Tau-V5 (O60502 whole entry): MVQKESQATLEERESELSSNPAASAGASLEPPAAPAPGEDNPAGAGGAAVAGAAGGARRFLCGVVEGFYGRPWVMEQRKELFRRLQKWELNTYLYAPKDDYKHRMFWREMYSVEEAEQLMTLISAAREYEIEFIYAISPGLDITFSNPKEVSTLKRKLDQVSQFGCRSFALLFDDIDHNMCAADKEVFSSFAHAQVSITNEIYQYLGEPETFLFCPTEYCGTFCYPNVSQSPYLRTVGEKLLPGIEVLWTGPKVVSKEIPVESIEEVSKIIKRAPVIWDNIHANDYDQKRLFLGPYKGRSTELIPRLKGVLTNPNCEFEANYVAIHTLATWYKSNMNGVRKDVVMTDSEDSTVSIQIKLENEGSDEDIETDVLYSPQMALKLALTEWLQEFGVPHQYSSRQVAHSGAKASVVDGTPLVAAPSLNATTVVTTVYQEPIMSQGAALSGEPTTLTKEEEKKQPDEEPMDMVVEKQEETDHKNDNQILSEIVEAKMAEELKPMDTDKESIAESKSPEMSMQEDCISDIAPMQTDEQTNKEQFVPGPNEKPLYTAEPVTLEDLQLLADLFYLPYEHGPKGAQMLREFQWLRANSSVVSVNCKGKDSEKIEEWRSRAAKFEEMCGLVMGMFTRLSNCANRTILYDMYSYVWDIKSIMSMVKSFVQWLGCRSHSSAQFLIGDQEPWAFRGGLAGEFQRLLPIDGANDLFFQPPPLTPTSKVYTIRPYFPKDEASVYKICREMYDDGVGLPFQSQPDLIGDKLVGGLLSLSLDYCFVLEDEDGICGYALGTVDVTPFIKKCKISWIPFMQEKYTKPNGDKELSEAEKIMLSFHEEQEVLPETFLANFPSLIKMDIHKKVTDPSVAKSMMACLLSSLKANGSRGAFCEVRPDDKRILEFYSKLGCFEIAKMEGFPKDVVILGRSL
Description: HEK-293T cells were transfected with […] and Tau-V5 plasmids using Lipofectamine and grown overnight. Next day, the cells were collected and re-plated at 1×10^5 cells per well in 96 well plates. Cells were incubated for 4 hr at 37° C., before compounds were added at 1 uM, with 3-fold dilutions in a 10-point titration. Cell plates were incubated with compounds overnight at 37° C. The next day media was removed from wells by gentle aspiration and 120 ul of 1× Cell Lysis buffer mixed with protease and phosphatase cocktail added to each well. A freeze thaw was performed at -80° C., then mixed before transferring 50 ul to MSD plates coated with V5-tag antibody to capture Tau. MSD Plates were incubated overnight at 4° C., on a plate shaker. The following day, plates were washed and incubated with Tau-[…]-GlcNAc antibody for 2 hr and then developed with rabbit Sulfo-tag antibody. Final read out was carried out on an MSD 600 reader. The data was analyzed using Graph Pad or Genedata, the data was normalized and % activity versus log of compound concentration was plotted. The IC50 values were obtained from a 4 parameter fit.

[3] = biological target: Recombinant full length human OGA enzyme (Homo sapiens (Human), UniProt O60502); test: OGA Enzyme Inhibition Biochemical Assay; conditions: 1 nM OGA, 100 μM 4-MUGlcNAc, pH 6.4
Sequence of Recombinant full length human OGA enzyme (O60502 whole entry): as above
Description: Recombinant full length human OGA enzyme was purchased from Origene. 4-MUGlcNAc substrate was purchased from Sigma. All other reagents were purchased from Sigma or Fisher. Assay buffer consists of the McIlvaine buffer system, pH 6.4 (0.2M Na2HPO4 mixed with 0.1M citric acid) and 0.01% BSA. […] Reactions were incubated for 90 minutes at room temperature and quenched with 40 μl of 3M glycine, pH 10 and read on a Perkin Elmer Envision plate reader (Ex: 355 nm/Em: 460 nm). Compounds were tested with a 10-point dose-response starting from 20 μM with a 4-fold dilution. Data was fit using GraphPad Prism using a 4-parameter fit with variable slope.

[4] = system: P-gp (MDR1); test: MDR1-MDCK Efflux Ratio Assay; type: in vitro ADME; conditions: dog, read-out: MDR1-MDCK Efflux Ratio (B-A/A-B)
Description: MDR1-MDCK cell monolayers were grown to confluence on microporous polyester membranes in 96-well Corning insert plates. The permeability assay buffer was Hanks' Balanced Salt Solution containing 10 mM HEPES at pH of 7.4. Loperamide (1 μM) was used as a positive control P-gp substrate. Propranolol and Bestatin (1 μM) were used as high and low permeability comparators, respectively. Test compounds or positive control P-gp substrate/permeability comprators were added to respective apical and basolateral chambers for bidirectional assessment of permeability. Receiver buffer (transport buffer supplemented with 1% bovine serum albumin) was added to respective receiver chambers. MDR1-MDCK cells were incubated with test compounds at 37° C. with 5% CO2 for 2 hr. Samples were collected from the donor chamber at both 0 and 120 minutes, and from the receiver chamber at 120 minutes. Test and control compound concentrations were determined using LC-MS/MS analysis. Each determination was performed in triplicate. The apparent permeability (Papp), efflux ratio and mass balance (percent recovery) were calculated as follows: [formula] where: dCr/dt is the cumulative concentration in the receiver compartment versus time in μM s^−1 Vr is the volume of the receiver compartment in cm^3 Vd is the volume of the donor compartment in cm^3 A is the area of the insert (0.143 cm^2 for 96-well insert) CE is the estimated experimental concentration (Time=0) of the dosing solution Cr^final is the concentration of the receiver at the end of the incubation period Cd^final is the concentration of the donor at the end of the incubation period.

[5] = HEK-293T cells, Tau-S400-GlcNAc MSD readout
[6] = MDCK-MDR1, pH 7.4, MDR1-MDCK cells, 2 hr, pH 7.4

Row | Structure (SMILES) | RLM % Qh (%) [1] [%] | IC50 [2, 5] [nM] | IC50 [3] [nM] | efflux ratio at 2 h [4, 6] | efflux ratio at 2 h ([4]; MDCK-MDR1, pH 7.4, repeated assay, value marked with asterisk (*)) | IC50 ([2]; repeated assay, value marked with asterisk (*)) [nM]
1 | CC(=O)Nc1ncc(CN2CCC[C@H](Oc3ccc(F)cn3)C2)s1 [Example 1-2, (S)—N-(5-((3-((5-fluoropyridin-2-yl)oxy)piperidin-1-yl)methyl)thiazol-2-yl)acetamide] | 86 | 35 | 210 | 2.3 | 2.1 | –
2 | COCCOc1cc(O[C@@H]2C[C@H](C)N(Cc3sc(NC(C)=O)nc3F)C2)ncn1 [Example 1-23, N-(4-fluoro-5-(((2S,4R)-4-((6-(2-methoxyethoxy)pyrimidin-4-yl)oxy)-2-methylpyrrolidin-1-yl)methyl)thiazol-2-yl)acetamide] | 31 | 3 | < 1 | 7.7 | – | –
3 | CC(=O)Nc1ncc(CN2C[C@H](Oc3cc(OC4COC4)ncn3)C[C@@H]2C)s1 [Example 1-124, N-(5-(((2S,4R)-2-methyl-4-((6-(oxetan-3-yloxy)pyrimidin-4-yl)oxy)pyrrolidin-1-yl)methyl)thiazol-2-yl)acetamide] | 16 | 3 | < 1 | 11.2 | – | –
4 | CC(=O)Nc1nc(F)c(CN2C[C@H](Oc3cnc(C)cn3)C[C@@H]2C)s1 [Example 1-108, N-(4-fluoro-5-(((2S,4R)-2-methyl-4-((5-methylpyrazin-2-yl)oxy)pyrrolidin-1-yl)methyl)thiazol-2-yl)acetamide] | 79 | 2 | < 1 | 3.4 | – | –
5 | CC(=O)Nc1nc(F)c(CN2C[C@H](Oc3cc(C)ncc3C)C[C@@H]2C)s1 [Example 1-107, N-(5-(((2S,4R)-4-((2,5-dimethylpyridin-4-yl)oxy)-2-methylpyrrolidin-1-yl)methyl)-4-fluorothiazol-2-yl)acetamide] | 58 | – | 1.7 | 17.2 | – | –
6 | CC(=O)Nc1ncc(CN2C[C@H](Oc3cc(OC4CN(C)C4)ncn3)C[C@@H]2C)s1 [Example 1-125, N-(5-(((2S,4R)-2-methyl-4-((6-((1-methylazetidin-3-yl)oxy)pyrimidin-4-yl)oxy)pyrrolidin-1-yl)methyl)thiazol-2-yl)acetamide] | 54 | – | 1.4 | 1 | – | –
7 | CC(=O)Nc1nc(F)c(CN2C[C@H](Oc3ncc(C)nc3C)C[C@@H]2C)s1 [Example 1-106, N-(5-(((2S,4R)-4-((3,5-dimethylpyrazin-2-yl)oxy)-2-methylpyrrolidin-1-yl)methyl)-4-fluorothiazol-2-yl)acetamide] | 86 | – | 2.4 | 4.6 | – | –
8 | CC(=O)Nc1ncc(CN2C[C@H](Oc3cc(OCC(F)(F)F)ncn3)C[C@@H]2C)s1 [Example 1-77] | 58 | 10 | < 1 | – | – | –
9 | CC(=O)Nc1ncc(CN2C[C@H](Oc3ncc(C)nc3C)C[C@@H]2C)s1 [Example 1-81, N-(5-(((2S,4R)-4-((3,5-dimethylpyrazin-2-yl)oxy)-2-methylpyrrolidin-1-yl)methyl)thiazol-2-yl)acetamide] | 74 | – | 8.4 | 7.3 | – | –
10 | CC(=O)Nc1ncc(CN2C[C@H](Oc3cc(Cl)ncn3)C[C@@H]2C)s1 [Example 1-21, N-(5-(((2S,4R)-4-((6-chloropyrimidin-4-yl)oxy)-2-methylpyrrolidin-1-yl)methyl)thiazol-2-yl)acetamide] | – | 7 | < 1 | 3.8 | – | 8
11 | CC(=O)Nc1nc(F)c(CN2C[C@@H](Oc3cc(C)nc(C)c3)CC[C@@H]2C)s1 [Example 1-56, N-(5-(((2S,5S)-5-((2,6-dimethylpyridin-4-yl)oxy)-2-methylpiperidin-1-yl)methyl)-4-fluorothiazol-2-yl)acetamide] | 91 | – | < 1 | 21.8 | – | –
